Reference: patent US4335249A, “Herbicidal diphenyl ethers, sulfides, sulfoxides and sulfones” (Rohm and Haas Company, priority 1976, dated 1982)

Key:
Format in all cases: in vivo
[1] = test system: cocklebur (Xanthium pensylvanicum); assay: Preemergence herbicidal activity, cocklebur; conditions: for pest or weed control at 2241.7 g/ha / % control, Cocklebur: 2 lb/A; for % control, Cocklebur: Pre
Procedure, shortened: (§1)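 Plants were scored as mean % killed about two weeks after treatment. Postemergence species were sprayed two weeks after germination and preemergence species immediately after sowing. The spray was an acetone/water solution at the stated lb/A rate in a 50 gal/acre carrier.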

marigold (Tagetes spp.) [2] = assay: Preemergence herbicidal activity, marigold; conditions: for pest or weed control at 2241.7 g/ha / % control, Marigold: 2 lb/A; for % control, Marigold: Pre
Procedure, shortened: as §1

[3] = test system: morningglory (Ipomoca spp.); assay: Preemergence herbicidal activity, morningglory; conditions: for pest or weed control at 2241.7 g/ha / % control, Morningglory: 2 lb/A; for % control, Morningglory: Pre
Procedure, shortened: as §1

[4] = test system: tomato (Lycopersicon esculentum); assay: Preemergence herbicidal activity, tomato; conditions: Pre; for pest or weed control at 2241.7 g/ha / % control, Tomato: 2 lb/A
Procedure, shortened: as §1

[5] = test system: velvetleaf (Abutilon theophrasti); assay: Preemergence herbicidal activity, velvetleaf; conditions: Pre; for pest or weed control at 2241.7 g/ha / % control, Velvetleaf: 2 lb/A
Procedure, shortened: as §1

[6] = test system: barnyardgrass (Echinochloa crusgalli); assay: Preemergence herbicidal activity, barnyardgrass; conditions: Pre; for pest or weed control at 2241.7 g/ha / % control, Barnyardgrass: 2 lb/A
Procedure, shortened: (§2)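 Compounds dissolved in acetone, diluted with water, and sprayed onto soil flats at 50 gallons per acre carrier volume at stated lb/A rates. Preemergence: applied immediately after planting; postemergence: applied two weeks after germination.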

[7] = test system: downybrome (Bromus tectorum); assay: Preemergence herbicidal activity, downybrome; conditions: Pre; for pest or weed control at 2241.7 g/ha / % control, Downybrome: 2 lb/A
Procedure, shortened: as §1

foxtail (Setaria spp.) [8] = assay: Preemergence herbicidal activity, foxtail; conditions: Pre; for pest or weed control at 2241.7 g/ha / % control, Foxtail: 2 lb/A
Procedure, shortened: as §1

[9] = test system: yellow nutsedge (Cyperus esculentus); assay: Preemergence herbicidal activity, yellow nutsedge; conditions: for pest or weed control at 2241.7 g/ha / % control, Nutsedge: 2 lb/A; for % control, Nutsedge: Pre
Procedure, shortened: as §1

wild oats (Avena fatua) [10] = assay: Preemergence herbicidal activity, wild oats; conditions: Pre; for pest or weed control at 2241.7 g/ha / % control, Wild oat: 2 lb/A
Procedure, shortened: as §1

[11] = test system: cocklebur (Xanthium pensylvanicum); assay: Postemergence herbicidal activity, cocklebur; conditions: for pest or weed control at 2241.7 g/ha / % control, Cocklebur: 2 lb/A; for % control, Cocklebur: Post
Procedure, shortened: as §1

marigold (Tagetes spp.) [12] = assay: Postemergence herbicidal activity, marigold; conditions: for pest or weed control at 2241.7 g/ha / % control, Marigold: 2 lb/A; for % control, Marigold: Post
Procedure, shortened: as §1

[13] = test system: morningglory (Ipomoca spp.); assay: Postemergence herbicidal activity, morningglory; conditions: for pest or weed control at 2241.7 g/ha / % control, Morningglory: 2 lb/A; for % control, Morningglory: Post
Procedure, shortened: as §1

[14] = test system: tomato (Lycopersicon esculentum); assay: Postemergence herbicidal activity, tomato; conditions: Post; for pest or weed control at 2241.7 g/ha / % control, Tomato: 2 lb/A
Procedure, shortened: as §1

[15] = test system: velvetleaf (Abutilon theophrasti); assay: Postemergence herbicidal activity, velvetleaf; conditions: for pest or weed control at 2241.7 g/ha / % control, Velvetleaf: 2 lb/A; for % control, Velvetleaf: Post
Procedure, shortened: as §2

[16] = test system: barnyardgrass (Echinochloa crusgalli); assay: Postemergence herbicidal activity, barnyardgrass; conditions: Post; for pest or weed control at 2241.7 g/ha / % control, Barnyardgrass: 2 lb/A
Procedure, shortened: as §2

[17] = test system: downybrome (Bromus tectorum); assay: Postemergence herbicidal activity, downybrome; conditions: Post; for pest or weed control at 2241.7 g/ha / % control, Downybrome: 2 lb/A
Procedure, shortened: as §1

foxtail (Setaria spp.) [18] = assay: Postemergence herbicidal activity, foxtail; conditions: Post; for pest or weed control at 2241.7 g/ha / % control, Foxtail: 2 lb/A
Procedure, shortened: as §1

[19] = test system: yellow nutsedge (Cyperus esculentus); assay: Postemergence herbicidal activity, yellow nutsedge; conditions: for pest or weed control at 2241.7 g/ha / % control, Nutsedge: 2 lb/A; for % control, Nutsedge: Post
Procedure, shortened: as §1

wild oats (Avena fatua) [20] = assay: Postemergence herbicidal activity, wild oats; conditions: Post; for pest or weed control at 2241.7 g/ha / % control, Wild oat: 2 lb/A
Procedure, shortened: as §1

[21] = Xanthium strumarium, pre-emergence, 336 h
[22] = Solanum lycopersicum, pre-emergence, 336 h
[23] = Abutilon theophrasti, pre-emergence, 336 h
[24] = Echinochloa crus-galli, pre-emergence, 336 h
[25] = Bromus tectorum, pre-emergence, 336 h
[26] = Avena fatua, pre-emergence, 336 h, read-out: % control, Wild oat
[27] = Xanthium strumarium, post-emergence, 336 h
[28] = Solanum lycopersicum, post-emergence, 336 h
[29] = Abutilon theophrasti, post-emergence, 336 h
[30] = Echinochloa crus-galli, post-emergence, 336 h
[31] = Bromus tectorum, post-emergence, 336 h
[32] = Avena fatua, post-emergence, 336 h, read-out: % control, Wild oat

SMILES | pest or weed control at 2241.7 g/ha [1, 21] [%] | pest or weed control at 2241.7 g/ha (marigold (Tagetes spp.) [2]; pre-emergence, 336 h) [%] | pest or weed control at 2241.7 g/ha ([3]; Ipomoea, pre-emergence, 336 h) [%] | pest or weed control at 2241.7 g/ha [4, 22] [%] | pest or weed control at 2241.7 g/ha [5, 23] [%] | pest or weed control at 2241.7 g/ha [6, 24] [%] | pest or weed control at 2241.7 g/ha [7, 25] [%] | pest or weed control at 2241.7 g/ha (foxtail (Setaria spp.) [8]; Setaria, pre-emergence, 336 h) [%] | pest or weed control at 2241.7 g/ha ([9]; Cyperus, pre-emergence, 336 h) [%] | pest or weed control at 2241.7 g/ha (wild oats (Avena fatua) [10]; [26]) [%] | pest or weed control at 2241.7 g/ha [11, 27] [%] | pest or weed control at 2241.7 g/ha (marigold (Tagetes spp.) [12]; post-emergence, 336 h) [%] | pest or weed control at 2241.7 g/ha ([13]; Ipomoea, post-emergence, 336 h) [%] | pest or weed control at 2241.7 g/ha [14, 28] [%] | pest or weed control at 2241.7 g/ha [15, 29] [%] | pest or weed control at 2241.7 g/ha [16, 30] [%] | pest or weed control at 2241.7 g/ha [17, 31] [%] | pest or weed control at 2241.7 g/ha (foxtail (Setaria spp.) [18]; Setaria, post-emergence, 336 h) [%] | pest or weed control at 2241.7 g/ha ([19]; Cyperus, post-emergence, 336 h) [%] | pest or weed control at 2241.7 g/ha (wild oats (Avena fatua) [20]; [32]) [%] | further results
CCOC(=O)C(CC)Oc1ccc(Oc2ccc(C(F)(F)F)cc2Cl)cc1 (stereo not shown) [Example 20] | 0 | 0 | 0 | 0 | 0 | 99 | 90 | 100 | 0 | 40 | 0 | 0 | 0 | 30 | 50 | 100 | 30 | 100 | 20 | 100 | 
CCN(CC)C(=O)C(C)Oc1ccc(Oc2ccc(C(F)(F)F)cc2Cl)cc1 (stereo not shown) [Example 5] | 0 | 0 | 0 | 0 | 0 | 60 | 0 | 99 | 0 | 0 | 0 | 0 | 20 | 80 | 20 | 20 | 30 | 90 | 0 | 20 | 
CCOC(=O)C(C)Oc1ccc(Oc2ccc(C(F)(F)F)cc2Cl)cc1[N+](=O)[O-] (stereo not shown) [Example 9] | 0 | 0 | 0 | 0 | 0 | 0 | 0 | 0 | 0 | 0 | 40 | 50 | 0 | 90 | 20 | 40 | 0 | 0 | 0 | 0 | 
CCOC(=O)C(C)Oc1ccc(Sc2cccc(C(F)(F)F)c2)cc1 (stereo not shown) [Example 45, Ethyl 2-[4-(3-trifluoromethylphenylthio)phenoxy] propionate] |  |  |  |  |  |  |  |  |  |  |  |  |  |  |  |  |  |  |  |  | pest or weed control at 8966.8 g/ha ([1]; Xanthium strumarium, pre-emergence, 336 h, 8 lb/A): 0%; pest or weed control at 8966.8 g/ha (marigold (Tagetes spp.) [2]; pre-emergence, 336 h, 8 lb/A): 0%; pest or weed control at 8966.8 g/ha ([3]; Ipomoea, pre-emergence, 336 h, 8 lb/A): 0%; pest or weed control at 8966.8 g/ha ([4]; Solanum lycopersicum, pre-emergence, 336 h, 8 lb/A): 0%; pest or weed control at 8966.8 g/ha ([5]; Abutilon theophrasti, pre-emergence, 336 h, 8 lb/A): 0%; pest or weed control at 8966.8 g/ha ([6]; Echinochloa crus-galli, pre-emergence, 336 h, 8 lb/A): 0%; pest or weed control at 8966.8 g/ha ([7]; Bromus tectorum, pre-emergence, 336 h, 8 lb/A): 0%; pest or weed control at 8966.8 g/ha (foxtail (Setaria spp.) [8]; Setaria, pre-emergence, 336 h, 8 lb/A): 0%; pest or weed control at 8966.8 g/ha ([9]; Cyperus, pre-emergence, 336 h, 8 lb/A): 0%; pest or weed control at 8966.8 g/ha (wild oats (Avena fatua) [10]; Avena fatua, pre-emergence, 336 h, 8 lb/A, read-out: % control, Wild oat): 0%; pest or weed control at 4483.4 g/ha ([11]; Xanthium strumarium, post-emergence, 336 h, 4 lb/A): 0%; pest or weed control at 4483.4 g/ha (marigold (Tagetes spp.) [12]; post-emergence, 336 h, 4 lb/A): 0%; pest or weed control at 4483.4 g/ha ([13]; Ipomoea, post-emergence, 336 h, 4 lb/A): 0%; pest or weed control at 4483.4 g/ha ([14]; Solanum lycopersicum, post-emergence, 336 h, 4 lb/A): 80%; pest or weed control at 4483.4 g/ha ([15]; Abutilon theophrasti, post-emergence, 336 h, 4 lb/A): 0%; pest or weed control at 4483.4 g/ha ([16]; Echinochloa crus-galli, post-emergence, 336 h, 4 lb/A): 20%; pest or weed control at 4483.4 g/ha ([17]; Bromus tectorum, post-emergence, 336 h, 4 lb/A): 20%; pest or weed control at 4483.4 g/ha (foxtail (Setaria spp.) [18]; Setaria, post-emergence, 336 h, 4 lb/A): 30%; pest or weed control at 4483.4 g/ha ([19]; Cyperus, post-emergence, 336 h, 4 lb/A): 0%; pest or weed control at 4483.4 g/ha (wild oats (Avena fatua) [20]; Avena fatua, post-emergence, 336 h, 4 lb/A, read-out: % control, Wild oat): 20%
CC(Oc1ccc(Oc2ccc(C(F)(F)F)cc2Cl)cc1)C(=O)OCCN(C)C (stereo not shown) [Example 31] | 0 | 0 | 70 | 0 | 0 | 100 | 30 | 100 | 0 | 40 | 60 | 40 | 80 | 90 | 80 | 100 | 100 | 100 | 0 | 99 | 
CC(Oc1ccc(Oc2ccc(C(F)(F)F)cc2Cl)cc1)C(=O)O (stereo not shown) [Example 14, Sodium 2-[4-(2-chloro-4-trifluoromethylphenoxy)phenoxy] propionate] |  |  |  |  |  |  |  |  |  |  |  |  |  |  |  |  |  |  |  |  | % control, Cocklebur [1]: 0%; % control, Marigold (marigold (Tagetes spp.) [2]): 0%; % control, Morningglory [3]: 0%; % control, Tomato [4]: 0%; % control, Velvetleaf [5]: 0%; % control, Barnyardgrass [6]: 100%; % control, Downybrome [7]: 50%; % control, Foxtail (foxtail (Setaria spp.) [8]): 100%; % control, Nutsedge [9]: 0%; % control, Wild oat (wild oats (Avena fatua) [10]): 40%; % control, Cocklebur [11]: 0%; % control, Marigold (marigold (Tagetes spp.) [12]): 0%; % control, Morningglory [13]: 0%; % control, Tomato [14]: 0%; % control, Velvetleaf [15]: 0%; % control, Barnyardgrass [16]: 100%; % control, Downybrome [17]: 20%; % control, Foxtail (foxtail (Setaria spp.) [18]): 95%; % control, Nutsedge [19]: 0%; % control, Wild oat (wild oats (Avena fatua) [20]): 80%
CC(Oc1ccc(Oc2ccc(C(F)(F)F)cc2Cl)cc1)C(=O)O (stereo not shown) [Example 17] |  |  |  |  |  |  |  |  |  |  |  |  |  |  |  |  |  |  |  |  | % control, Cocklebur [1]: 0%; % control, Marigold (marigold (Tagetes spp.) [2]): 0%; % control, Morningglory [3]: 0%; % control, Tomato [4]: 0%; % control, Velvetleaf [5]: 0%; % control, Barnyardgrass [6]: 100%; % control, Downybrome [7]: 30%; % control, Foxtail (foxtail (Setaria spp.) [8]): 100%; % control, Nutsedge [9]: 0%; % control, Wild oat (wild oats (Avena fatua) [10]): 95%; % control, Cocklebur [11]: 0%; % control, Marigold (marigold (Tagetes spp.) [12]): 0%; % control, Morningglory [13]: 0%; % control, Tomato [14]: 0%; % control, Velvetleaf [15]: 0%; % control, Barnyardgrass [16]: 99%; % control, Downybrome [17]: 0%; % control, Foxtail (foxtail (Setaria spp.) [18]): 90%; % control, Nutsedge [19]: 0%; % control, Wild oat (wild oats (Avena fatua) [20]): 80%
COC(=O)C(C)Oc1ccc(Oc2ccc(C(F)(F)F)cc2Cl)cc1 (stereo not shown) [Example 4, Methyl 2-[4-(2-chloro-4-trifluoromethylphenoxy)phenoxy] propionate] | 0 | 0 | 0 | 0 | 20 | 100 | 0 | 100 | 0 | 40 | 100 | 30 | 20 | 60 | 80 | 100 | 99 | 100 | 0 | 100 | 
